Laboratory results: ChEMBL document CHEMBL1201862, “PubChem BioAssay data set” (2004)
Calls of active or inactive are those of the source.

Columns and labels:
[1] = molecular target: Voltage-gated inwardly rectifying potassium channel KCNH2 (Homo sapiens, UniProt Q12809); settings: Potency;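 note: confirmatory quantitative high-throughput screen measuring inhibition of hERG channel activity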
Cytochrome P450 2D6 = Cytochrome P450 2D6 (Homo sapiens, UniProt P10635);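 note: CYP2D6 member of a cytochrome P450 panel assay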
HEK293 [2] = test: cells; settings: Homo sapiens
HEK293 [3] = test: cells; settings: Homo sapiens; remark: listed apart in the source
A-375 = test: proliferation inhibition in MITF-low A375 cells – cell-based, cherry-pick samples, set 2, counter-screen for MITF modulator project, dose response (AID 540335); format: functional; settings: Homo sapiens
[4] = molecular target: T1, Microphthalmia-associated transcription factor (Homo sapiens, UniProt O75030); test: reducers of TRPM1 reporter luminescence, concentration series – cell-based, SK-MEL-5, cherry-picked, set 3, MITF inhibitor project, dose response (AID 493073); format: functional;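 note: SK-MEL-5 melanoma cells with luciferase driven by the MITF target TRPM1 promoter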
T1 sequence (O75030 whole entry): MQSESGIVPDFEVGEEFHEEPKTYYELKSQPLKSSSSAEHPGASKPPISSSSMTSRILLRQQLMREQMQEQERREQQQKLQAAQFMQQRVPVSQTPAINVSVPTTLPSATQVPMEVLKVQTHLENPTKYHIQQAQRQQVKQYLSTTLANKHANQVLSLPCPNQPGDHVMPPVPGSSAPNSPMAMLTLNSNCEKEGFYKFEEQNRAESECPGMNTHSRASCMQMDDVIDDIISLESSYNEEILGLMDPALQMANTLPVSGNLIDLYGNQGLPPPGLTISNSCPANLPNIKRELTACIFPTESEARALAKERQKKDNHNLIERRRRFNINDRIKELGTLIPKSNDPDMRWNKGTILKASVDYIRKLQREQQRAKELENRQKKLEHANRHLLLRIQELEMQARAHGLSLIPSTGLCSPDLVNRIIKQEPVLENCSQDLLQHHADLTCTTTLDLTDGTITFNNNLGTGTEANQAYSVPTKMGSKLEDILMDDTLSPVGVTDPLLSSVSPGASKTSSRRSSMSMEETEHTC

Trypsin = Trypsin (Sus scrofa, UniProt P00761); test: trypsin protease activity blockade – biochemical, quenched peptide fluorescence, cherry-pick, selectivity assay for Rce1 protease inhibitor project, dose response (AID 488789)
CAAX prenyl protease 2 [5] = molecular target: CAAX prenyl protease 2 (Homo sapiens, UniProt Q9Y256); test: inhibition of Ras-converting CAAX protease Rce1 – biochemical, yeast membranes, quenched-peptide fluorescence, cherry-pick, dose response (AID 588849)
CAAX prenyl protease 2 [6] = molecular target: T2, CAAX prenyl protease 2 (Saccharomyces cerevisiae S288c, UniProt Q03530); format: biochemical
T2 sequence (Q03530 whole entry): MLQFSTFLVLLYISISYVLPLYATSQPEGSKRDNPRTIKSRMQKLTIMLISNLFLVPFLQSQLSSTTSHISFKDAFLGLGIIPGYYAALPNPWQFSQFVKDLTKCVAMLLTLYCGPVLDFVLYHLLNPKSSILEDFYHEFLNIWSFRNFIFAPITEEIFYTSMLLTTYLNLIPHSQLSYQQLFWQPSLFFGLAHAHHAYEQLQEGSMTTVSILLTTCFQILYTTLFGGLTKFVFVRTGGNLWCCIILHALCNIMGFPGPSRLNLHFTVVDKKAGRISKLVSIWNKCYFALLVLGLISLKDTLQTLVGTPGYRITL

HeLa = test: ATP-based viability loss in HeLa cells – cell-based, CellTiter-Glo luminescence, cherry-pick samples, cytotoxicity control for MITF activator project, dose response (AID 540259); format: functional; settings: Homo sapiens

Sequence of Voltage-gated inwardly rectifying potassium channel KCNH2 (Q12809 whole entry): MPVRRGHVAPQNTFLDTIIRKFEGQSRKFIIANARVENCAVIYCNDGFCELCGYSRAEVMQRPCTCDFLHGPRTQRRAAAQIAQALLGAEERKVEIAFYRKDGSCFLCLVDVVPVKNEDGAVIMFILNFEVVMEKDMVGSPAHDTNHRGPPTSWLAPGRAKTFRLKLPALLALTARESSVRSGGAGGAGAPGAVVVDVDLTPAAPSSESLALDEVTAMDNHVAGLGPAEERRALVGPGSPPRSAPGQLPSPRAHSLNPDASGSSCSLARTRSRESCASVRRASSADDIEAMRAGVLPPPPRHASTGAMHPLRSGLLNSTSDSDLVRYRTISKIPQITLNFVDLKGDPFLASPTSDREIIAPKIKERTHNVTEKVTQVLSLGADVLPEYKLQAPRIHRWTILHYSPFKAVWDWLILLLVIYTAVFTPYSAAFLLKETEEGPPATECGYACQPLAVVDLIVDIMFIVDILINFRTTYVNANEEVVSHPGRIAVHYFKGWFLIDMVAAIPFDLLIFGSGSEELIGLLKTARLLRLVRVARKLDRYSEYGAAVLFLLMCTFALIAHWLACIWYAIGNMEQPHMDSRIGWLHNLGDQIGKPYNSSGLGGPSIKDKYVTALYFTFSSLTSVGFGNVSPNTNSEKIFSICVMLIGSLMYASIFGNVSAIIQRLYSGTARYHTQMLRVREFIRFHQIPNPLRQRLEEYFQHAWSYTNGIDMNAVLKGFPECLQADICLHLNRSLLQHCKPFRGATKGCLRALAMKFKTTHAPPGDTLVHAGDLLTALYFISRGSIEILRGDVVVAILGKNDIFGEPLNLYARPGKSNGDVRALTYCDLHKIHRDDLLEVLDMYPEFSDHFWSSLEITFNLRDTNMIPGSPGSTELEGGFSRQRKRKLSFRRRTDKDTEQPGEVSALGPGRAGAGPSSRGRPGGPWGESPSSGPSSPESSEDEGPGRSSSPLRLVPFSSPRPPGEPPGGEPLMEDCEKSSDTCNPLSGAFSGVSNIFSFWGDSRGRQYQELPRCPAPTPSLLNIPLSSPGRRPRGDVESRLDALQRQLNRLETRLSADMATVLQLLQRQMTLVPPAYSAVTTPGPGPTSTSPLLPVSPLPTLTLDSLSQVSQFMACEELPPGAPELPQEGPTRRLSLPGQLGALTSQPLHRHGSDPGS
Sequence of CAAX prenyl protease 2 (Homo sapiens, UniProt Q9Y256) (Q9Y256 whole entry): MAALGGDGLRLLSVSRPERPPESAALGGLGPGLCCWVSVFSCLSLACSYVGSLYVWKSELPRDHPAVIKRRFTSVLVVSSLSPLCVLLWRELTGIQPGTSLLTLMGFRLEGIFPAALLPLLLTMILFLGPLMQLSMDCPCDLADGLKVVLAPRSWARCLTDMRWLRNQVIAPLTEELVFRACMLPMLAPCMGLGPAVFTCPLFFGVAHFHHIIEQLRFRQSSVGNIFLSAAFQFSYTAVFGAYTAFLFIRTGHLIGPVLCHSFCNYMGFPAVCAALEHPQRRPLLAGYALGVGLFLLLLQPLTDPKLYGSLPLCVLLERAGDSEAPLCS
Sequence of Cytochrome P450 2D6 (P10635 whole entry): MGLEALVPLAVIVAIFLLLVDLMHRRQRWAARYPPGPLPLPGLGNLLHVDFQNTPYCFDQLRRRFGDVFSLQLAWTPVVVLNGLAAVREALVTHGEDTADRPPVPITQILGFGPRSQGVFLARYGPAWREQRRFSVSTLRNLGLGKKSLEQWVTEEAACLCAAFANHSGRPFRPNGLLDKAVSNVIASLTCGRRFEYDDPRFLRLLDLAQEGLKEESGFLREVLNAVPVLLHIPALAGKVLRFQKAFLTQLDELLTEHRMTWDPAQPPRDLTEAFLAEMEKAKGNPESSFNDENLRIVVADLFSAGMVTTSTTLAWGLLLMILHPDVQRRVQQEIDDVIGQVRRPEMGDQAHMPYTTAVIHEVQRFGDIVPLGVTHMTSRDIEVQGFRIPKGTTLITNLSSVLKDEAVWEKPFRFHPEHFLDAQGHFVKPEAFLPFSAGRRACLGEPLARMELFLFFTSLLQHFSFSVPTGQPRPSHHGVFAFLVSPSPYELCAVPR
Sequence of Trypsin (P00761 whole entry): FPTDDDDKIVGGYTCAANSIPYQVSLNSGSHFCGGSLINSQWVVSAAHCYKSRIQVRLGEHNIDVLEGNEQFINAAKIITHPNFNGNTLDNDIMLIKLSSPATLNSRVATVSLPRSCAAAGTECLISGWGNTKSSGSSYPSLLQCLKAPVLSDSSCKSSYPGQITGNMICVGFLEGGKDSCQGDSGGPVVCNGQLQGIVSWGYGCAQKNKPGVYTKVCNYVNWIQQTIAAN

COc1cc(CC(C)N)c(OC)cc1I (configuration not stated)
AC50 [1]: 15.8 µM (inconclusive)

CCN1CCN(c2cc(=O)n(-c3cc(Cl)ccc3C)c(=O)[nH]2)CC1
AC50 (Cytochrome P450 2D6): inconclusive

CC1=C([N+](=O)[O-])C(c2cccc(Br)c2)C2=C(O)c3ccccc3C2=N1 (configuration not stated)
EC50 (HEK293 [2]): > 59.6 µM (inactive)
EC50 (HEK293 [3]): > 59.6 µM (inactive)

CCCCn1c(=N)n(CCOc2ccc(C)cc2)c2ccccc21
AC50 (A-375): 18.3 µM (active)
AC50 [4]: 11.3 µM (active)

CC(C)(C)C(=O)C[n+]1ccc(C(N)=O)cc1
AC50 (Trypsin): 13.4 µM (active)
AC50 (CAAX prenyl protease 2 [5]): 12.5 µM (active)
AC50 (CAAX prenyl protease 2 [6]): 15.1 µM (active)

Cc1ccccc1NC(=O)Cc1nc(COC(=O)c2ccc(S(C)(=O)=O)c([N+](=O)[O-])c2)cs1
AC50 (A-375): 28.2 µM (active)
AC50 [4]: 12.8 µM (active)

COc1cccc(NC(=O)Nc2ccc3c(c2)nnn3C)c1
AC50 (HeLa): > 350 µM (inactive)
